{"source": "paper PMC11982498", "about": "(Redox Biology, 2025)", "key": {"[1]": {"system": "bio-(G2C4)6 (DNA, i motif) GGCCCCGGCCCCGGCCCCGGCCCCGGCCCCGGCCCC", "test": "SPR", "settings": "K+ 100 mM; 20 mM MES, pH 5.5, 25 °C"}, "[2]": {"system": "BCL-2(G4) (DNA, G4) AGGGGCGGGCGCGGGAGGAAGGGGGCGGGAGCGGGGCTG", "test": "ESI-MS", "settings": "K+ 100 mM KCl plus potassium phosphate; BPES buffer, pH 7.4; no adduct peak"}, "ILPR promoter i-motif": {"biological_target": "ILPR promoter i-motif", "test": "SPR binding to ILPR promoter i-motif", "settings": "MES buffer pH 5.5"}, "HRAS promoter i-motif": {"biological_target": "HRAS promoter i-motif", "test": "SPR binding to HRAS promoter i-motif", "settings": "MES buffer pH 5.5"}, "(G2C4)6 promoter i-motif": {"biological_target": "(G2C4)6 promoter i-motif", "test": "SPR binding to (G2C4)6 promoter i-motif", "settings": "MES buffer pH 5.5"}, "RET promoter i-motif": {"system": "RET promoter i-motif", "test": "TO displacement assay, RET i-motif", "assay_type": "binding", "procedure": "DNA oligonucleotides were diluted to 1 μM with 1 × PBES buffer at pH 5.5, annealed at 95 °C for 10 min, cooled to room temperature, and stored at 4 °C for future use. TO dye (1 μM) was added to the DNA solution followed with incubation for 1 h. The spectra of 100 μL mixture with addition of different equivalent compounds at 25 °C were recorded based on fluorescence emission (λex = 480 nm).\nTO displacement ratio (%) = (F0 − FC) / (F0 − FB) * 100.\nF0 and FC were the fluorescence intensity of TO at 536 nm with DNA before and after adding compounds, respectively. FB was the fluorescence intensity of TO at 536 nm with buffer only."}, "[3]": {"system": "BCL-2 gene transcription in SH-SY5Y cells", "test": "Real-time RT-PCR in SH-SY5Y cells, BCL-2", "assay_type": "cell-based, human", "procedure": "SH-SY5Y cells were treated with or without B14, and total RNA was subsequently isolated and purified. Reverse transcription was performed using a cDNA synthesis kit. The relative transcription levels of the genes were evaluated through quantitative real-time PCR using the SYBR Green-based method, as described in the Supplementary Date. Details regarding the primer sequences and the raw data can be found in Table S7 and Table S8.\n(§1) ^a -∆∆Ct = -[(Ct value of genes in treated sample - Ct value of genes in control) - (Ct value of β-actin in treated sample - Ct value of β-actin in control)]. ^b F: The relative expression fold.\nExperiment 1: SH-SY5Y cells were treated with different concentration of B14. The Ct values of BAX, VEGF, CMYC and BCL-2 were obtained.\nTotal RNA was extracted from cells and mice liver tissue using RNAiso Plus (Takara, 9109, Japan). Following sample homogenization, chloroform was added, and the solution was allowed to have phase separation into an upper aqueous layer (containing RNA), an interphase, and a lower organic layer (containing DNA and proteins). RNA was precipitated from the aqueous phase using isopropanol, while DNA was precipitated from the aqueous-organic interphase using ethanol. Complementary DNA (cDNA) was synthesized using the One-Step RT-PCR Kit (Takara, Cat#639503, Japan).\n(§2) Quantitative real-time polymerase chain reaction (qRT-PCR) was performed using the 2× RealStar SYBR Mixture (GenStar, Cat# A301-10, Guangzhou, China) on a LightCycler 480 II real-time PCR system (Roche, USA). Data were analyzed using the 2^−ΔΔCt method. Actin served as the internal control, and relative mRNA levels were normalized accordingly."}, "[4]": {"system": "BCL-2 gene transcription in brain of APP/PS1 mice", "test": "Real-time RT-PCR of mice brain, BCL-2", "assay_type": "in vivo", "settings": "for F = 2^-∆∆Ct (relative expression fold), BCL-2: relative to WT", "procedure": "Five months old male APP/PS1 mice, weighing 25–33 g, were purchased from Guangdong Medical Laboratory Animal Center and housed in the Laboratory Animal Center of Sun Yat-sen University (Guangzhou, China) for experimentation. […] The mice were housed in a specific pathogen-free environment with a controlled temperature of 22 ± 1 °C and a 12-h dark/light cycle. The mice were fed with a standard diet, and 30 mice were randomly divided into 6 groups (N = 5). […] Behavioral experiments were then conducted, and tissue specimens were collected for biochemical analysis.\nas §1\nFollowing sample homogenization, chloroform was added, and the solution was allowed to have phase separation into an upper aqueous layer (containing RNA), an interphase, and a lower organic layer (containing DNA and proteins). RNA was precipitated from the aqueous phase using isopropanol, while DNA was precipitated from the aqueous-organic interphase using ethanol.\nas §2"}, "Aβ1-42": {"biological_target": "T1, Aβ1-42 (Homo sapiens, UniProt P05067)", "T1 construct": "Aβ1-42 was purchased from Gill Biochemicals Ltd (Shanghai, China); purchased Gill Biochemicals Ltd (Shanghai, China)", "T1 sequence (P05067 672-713 limits assumed)": "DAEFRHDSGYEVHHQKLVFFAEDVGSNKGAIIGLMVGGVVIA", "test": "Dot blot of Aβ1-42 fibril aggregation", "assay_type": "biochemical", "settings": "20 μM compound, 24 h", "experimental": "After incubation at 37 °C for 24 h, 10 μL aliquots of 20 μM Aβ1-42 reaction mixtures were spotted onto nitrocellulose membranes. Membranes were blocked for 2 h with 5 % non-fat milk in TBS. After washing, membranes were incubated with the anti-Aβ fibril antibody (1:1,000, CST, USA) dissolved in TBS containing 3 % bovine serum albumin (BSA, Beyotime, Jiangsu, China) and 0.01 % Tween-20 (Solarbio, Beijing, China), and developed using an alkaline-phosphatase anti-rabbit secondary antibody (1:5,000, Proteintech, China). The bands were then detected using an enhanced chemiluminescence (ECL) kit (Millipore, USA).\nAfter incubation at 37 °C for 24h, 10 μL aliquots of 20 μM Aβ1-42 reactions were spotted onto nitrocellulose membranes. The membranes were blocked for 2 h with 5% non-fat milk in TBS. After washing, the membranes were incubated with the anti-Aβ fibril antibody (1:1000 dilution) dissolved in TBS containing 3% BSA and 0.01% Tween-20, and then developed using an alkaline-phosphatase antirabbit secondary antibody (1:5000 dilution). Invitrogen's Western Breeze Chemiluminescent kit was used to visualize the protein dots, and these dots were imaged using a FUJIFILM Luminescent Image Analyzer LAS-1000CH."}, "APP/PS1 transgenic mice": {"system": "APP/PS1 transgenic mice", "test": "Nest building test (NBT)", "assay_type": "in vivo", "settings": "B14 10, 20, 40 mg/kg i.p. every other day", "description": "Five months old male APP/PS1 mice, weighing 25–33 g, were purchased from Guangdong Medical Laboratory Animal Center and housed in the Laboratory Animal Center of Sun Yat-sen University (Guangzhou, China) for experimentation. All procedures were approved by the Animal Care and Use Committee of Sun Yat-sen University and complied with legal requirements and national guidelines for the care and maintenance of laboratory animals (Approval No. SYSU-IACUC-2024-002032). The mice were housed in a specific pathogen-free environment with a controlled temperature of 22 ± 1 °C and a 12-h dark/light cycle. The mice were fed with a standard diet, and 30 mice were randomly divided into 6 groups (N = 5). Compound B14 was dissolved in saline and administered at doses of 10, 20, or 40 mg/kg. […]\nThe spatial memory and learning abilities of the mice were assessed using Morris water maze (MWM), novel object recognition (NOR) and nesting experiments (NBT). The anxiety and depressive behaviors were evaluated through the open field test (OFT) and elevated plus maze (EPM). […]\nThe nest building test (NBT) assesses fine motor dexterity, cognitive function, and emotional states in mice while minimizing stress. […] After this period, photographs were taken of the paper sheets, and the nests built by the mice were scored."}, "[5]": {"system": "RB (DNA, i motif) GCCGCCCAAAACCCCCCG", "test": "thiazole orange displacement", "settings": "K+ 100 mM KCl plus potassium phosphate; BPES buffer, pH 5.5, 25 °C; 1 μM DNA, 1 μM TO; displacement only 1 %"}}}
{"molecule": "O=C(CCN1CCOCC1)Nc1ccc2c(c1)c(=O)c1cc(NC(=O)CCN3CCOCC3)ccc1n2-c1ccc2occc2c1", "note": "[Compound B14]", "values": [{"measurement": "KD", "setting": "[1]", "value": 33.30, "unit": "µM"}, {"measurement": "binding", "setting": "[2]", "value": "no"}, {"measurement": "Kd", "setting": "ILPR promoter i-motif", "value": "> 50", "unit": "µM"}, {"measurement": "Kd", "setting": "HRAS promoter i-motif", "value": "> 50", "unit": "µM"}, {"measurement": "Kd", "setting": "(G2C4)6 promoter i-motif", "value": 33.3, "unit": "µM"}, {"measurement": "TO displacement ratio", "setting": "RET promoter i-motif", "value": 27, "unit": "%"}, {"measurement": "-∆∆Ct, BCL-2", "setting": "[3]; 6.25 μM B14", "value": -0.31}, {"measurement": "F = 2^-∆∆Ct (relative expression fold), BCL-2", "setting": "[3]; 6.25 μM B14", "value": 1.23}, {"measurement": "-∆∆Ct, BCL-2", "setting": "[3]; 12.5 μM B14", "value": -0.73}, {"measurement": "F = 2^-∆∆Ct (relative expression fold), BCL-2", "setting": "[3]; 12.5 μM B14", "value": 1.65}, {"measurement": "-∆∆Ct, BCL-2", "setting": "[3]; 25 μM B14", "value": -1.11}, {"measurement": "F = 2^-∆∆Ct (relative expression fold), BCL-2", "setting": "[3]; 25 μM B14", "value": 2.15}, {"measurement": "-∆∆Ct, BCL-2", "setting": "[4]; 10 mg/kg", "value": 0.39}, {"measurement": "F = 2^-∆∆Ct (relative expression fold), BCL-2", "setting": "[4]; 10 mg/kg", "value": 0.76}, {"measurement": "-∆∆Ct, BCL-2", "setting": "[4]; 20 mg/kg", "value": 0.17}, {"measurement": "F = 2^-∆∆Ct (relative expression fold), BCL-2", "setting": "[4]; 20 mg/kg", "value": 0.88}, {"measurement": "-∆∆Ct, BCL-2", "setting": "[4]; 40 mg/kg", "value": -0.01}, {"measurement": "F = 2^-∆∆Ct (relative expression fold), BCL-2", "setting": "[4]; 40 mg/kg", "value": 1.00}, {"measurement": "formation of Aβ fibers (dot blot)", "setting": "Aβ1-42", "value": "reduced the formation of Aβ fibers and greatly decreased Aβ self-aggregation"}, {"measurement": "nesting scores (NBT)", "setting": "APP/PS1 transgenic mice", "value": "significantly improved"}, {"measurement": "binding", "setting": "[5]", "value": "no"}]}
